# Columns and labels:
# [1] = tested on: P. aeruginosa strain LES431; experiment: Neutropenic mouse thigh model of infection; type: in vivo, Pseudomonas aeruginosa; conditions: for Log10 reduction in cfu/g: neutropoenic mice, thigh, 24 h post-treatment, compared with vehicle control
# Procedure: Mouse thigh infection model experiments were conducted at Eurofins Panlabs, (Taipei, Taiwan). Mice were rendered neutropoenic with cyclophosphamide prior to infection. They were separated into groups of 5 animals per treatment. […] Animals were sacrificed 25 h post infection (24 h post-treatment) and thigh weights and cfu/g of tissue were calculated and recorded.
# Staphylococcus aureus = experiment: Aberdeen clinical study: sputum microbiology, resistance profile of predominant pathogen; type: in vivo; set-up: key: MRSA = Methicillin-resistant Staphylococcus aureus; MSSA = Methicillin-sensitive Staphylococcus aureus; PR = pan-resistant; S = sensitive; Cip^R = ciprofloxacin-resistant; Cip^S = ciprofloxacin sensitive; conditions: Patient 1, stable CF lung disease, oral 450 mg once daily increased weekly to four times daily; pre trial MRSA
# Procedure: (§1) Patients≧18 years of age, weighing>50 kg with stable CF lung disease were commenced on oral cysteamine bitartrate (Cystagon®) 450 mg once daily, increased weekly to 450 mg four times daily. Serial plasma cysteamine concentrations were measured for 24 h after the first dose. Participants were reviewed every week for 6 weeks, except at 4 weeks. Plasma cysteamine concentrations were measured 8 h after dosing when reviewed at 1, 2 and 3 weeks and 6 h after dosing when reviewed at 5 weeks. Sputum cysteamine concentration was also quantified at the 5-week assessment. Routine monitoring of clinical microbiology and reporting of speciation and resistance profile of major colonising microorganisms from patients continued as normal, prior to, during where necessary and after the trial by the hospital microbiology laboratory.
# P. aeruginosa = experiment: as above; type: in vivo, Pseudomonas aeruginosa; conditions: oral 450 mg once daily increased weekly to four times daily
# Procedure: as §1
compound,measurement,setting,value
O=C(O)c1cn(C2CC2)c2cc(N3CCNCC3)c(F)cc2c1=O [Ciprofloxacin],Log10 reduction in cfu/g,[1]; 15 mg/kg i.v.,2.02 log10 cfu/g
"NCCS [Cysteamine, cysteamine]",Effect of cysteamine on the activity of ciprofloxacin,"[1]; neutropenic mouse thigh model, cysteamine 1.25 mg/kg with ciprofloxacin 15 mg/kg",chemopotentiates the activity of ciprofloxacin
same,Log10 reduction in cfu/g,[1]; 1.25 mg/kg i.v.,0.74 log10 cfu/g
NCCS.O=C(O)C(O)C(O)C(=O)O (stereo not shown) [cysteamine bitartrate],Post trial microbiology (predominant pathogen in sputum),Staphylococcus aureus,MSSA
same,Post trial microbiology (predominant pathogen in sputum),"P. aeruginosa; Patient 2, stable CF lung disease, pre trial PR P. aeruginosa",S P. aeruginosa
same,Post trial microbiology (predominant pathogen in sputum),"P. aeruginosa; Patient 3, stable CF lung disease, pre trial Cip^R P. aeruginosa",Cip^S P. aeruginosa
Colistin,Log10 reduction in cfu/g,[1]; 5 mg/kg SC,5.02 log10 cfu/g
